# Patent publication US20230270804A1, “ANTI-HYPERCHOLESTEROLEMIA COMPOSITION AND A METHOD OF MANUFACTURING THE SAME” (NBI BIOSCIENCES PRIVATE LIMITED, priority 2020, published 2023)
# Entries after “also recorded” stand apart in the source; their conditions may differ.
# Experiments:
# [1] = tested on: heart, spleen, lungs, kidney, liver; test: Prophylactic study: histopathology (heart, spleen, lungs, kidney, liver); type: in vivo, Wistar strain albino rats; settings: HFD
# Description: FIG. 1 depicts the histopathological images of heart.
# FIG. 2 depicts the histopathological images of Spleen. […] However, this indicates the safety of the composition of the present invention on spleen.
# FIG. 3 depicts the histopathological images of Lungs. […] However, this indicates the safety of the composition of the present invention on lungs.
# FIG. 4 depicts the histopathological images of kidney. […] However, this indicates the safety of the composition of the present invention on kidney.
# FIG. 5 depicts the histopathological images of liver. […] It also indicates the safety of the composition of the present invention on liver. The composition of the present invention was also found useful to prevent the deposition of the fat bodies.
# [2] = tested on: Creatine phosphokinase (CPK), Lactate dehydrogenase (LDH), SGOT and SGPT; test: Therapeutic study: CPK, LDH, SGOT, SGPT; type: in vivo, Wistar strain albino rats
# Description: 1.5-2 ml blood sample was taken from retino-orbital chamber in vials for biochemical estimations at every 15 days. Investigations performed included detailed Total Cholesterol—TC (mg/dl), Triglyceride—TG (mg/dl), High Density Lipoprotein—HDL-C (mg/dl), Low Density Lipoprotein—LDL-C (mg/dl), Very Low-Density Lipoprotein—VLDL (mg/dl), WBC (10^3/u1), RBC (10^6/u1), Hb (g/dl), PCV (%), Reticulocyte (%), Platelet count 10^5/mm^3, Clotting time (Sec), Neutrophils, Lymphocyte, Monocyte and Eosinophil. The estimations were done with Ecoline kits from Erba Mannheim, ERBA diagnostics Mannheml, Germany using Semi Autoanalyzer RX50 of MicroLabs Instruments and COUNCELL21 of Tulip Diagnostics Pvt. Ltd. Lipid peroxidation (Plasma & Liver), HMG Co-Reductase, Creatine phosphokinase (CPK), Lactate dehydrogenase (LDH), SGOT and SGPT were estimated at the end of both the studies using the kits.
smiles,measurement,setting,value
"CC(C)c1c(C(=O)Nc2ccccc2)c(-c2ccccc2)c(-c2ccc(F)cc2)n1CC[C@@H](O)C[C@@H](O)CC(=O)O [Statin, Atorvastatin]",histopathology of heart,[1],relaxation in the cardiac muscles as the fat content was decreased
same,histopathology of liver (fatty liver grade),[1]; composition at OD and BD dose levels,dilation of hepatic portal triad was more evident; also recorded: from grade 2 to grade 1
same,Creatine phosphokinase,[2]; HFD Continued,1.31 ± 0.08
same,LDH,[2]; HFD Continued,288.32 ± 12.64 U/ml
same,SGOT,[2]; HFD Continued,63.76 ± 2.92 U/ml
same,SGPT,[2]; HFD Continued,53.82 ± 1.13 U/ml
same,LDH,[2]; HFD Discontinued,284.07 ± 5.61 U/ml
same,SGOT,[2]; HFD Discontinued,62.88 ± 3.43 U/ml
same,SGPT,[2]; HFD Discontinued,64.69 ± 0.52 U/ml
same,CPK value increase,[2]; therapeutic study,10%
same,SGOT reduction,[2]; therapeutic study,16%
same,SGPT reduction,[2]; therapeutic study,5%
